In paper PMC6539479:
Entries after “also recorded” stand apart in the source; their conditions may differ. Like-named read-outs stand apart in the source and are kept apart here.

Legend:
human TASK-3 channels [1] = conditions: cited from earlier work
TASK-1 = test system: TASK-1; design: method as in PMID 30803485; conditions: cited from earlier work
human TASK-3 channels [2] = experiment: IonWorks Quattro electrophysiology assay, HEK293 (Coburn et al.); conditions: TASK-3, from reported IC50
[3] = Table S2, TASK-3, ref 16 (supplement ref 1)
[4] = Table S3 reported activity, TASK-3
[5] = Table 1, Figure 4B and text, TASK-3

SMILES	IC50 (human TASK-3 channels [1]; [3])	other results
CS(=O)(=O)C1CCN(c2ncnc3c2CN(C(=O)c2ccc(-c4ccccc4)cc2)CC3)CC1 [Compound 18]	82 ± 5 nM	IC50 (human TASK-3 channels [1]; [4]): 82 nM
CCCC(=O)C1CCN(c2ncnc3c2CN(C(=O)c2ccc(-c4ccccc4)cc2)CC3)CC1 [PK-THPP]		potency on TASK-1 relative to TASK-3 (TASK-1): almost nine-times less potency; also recorded: almost nine-fold less potency
O=C(c1ccc(-c2ccccc2)cc1)N1CCc2ncnc(N3CCCC3)c2C1 [Compound 17b]		IC50 (human TASK-3 channels [1]; [5]): 27000 nM; inhibiting TASK-3 channels (human TASK-3 channels [1]; potency range in words): micromolar range; fold lower affinity than PK-THPP (human TASK-3 channels [2]): ~1000 fold
CCOC(=O)C1CCN(c2ncnc3c2CN(C(=O)c2ccccc2)CC3)CC1 [Compound 12a]	3600 ± 770 nM	
CCOC(=O)C1CCN(c2ncnc3c2CN(C(=O)c2ccc(-c4ccccc4)cc2)CC3)CC1 [Compound 12f]	74 ± 9 nM	
CCOC(=O)C1CCN(c2ncnc3c2CN(C(=O)c2ccc(-c4ccccc4)cc2)C(C)(C)C3)CC1 [Compound 13b]	650 ± 30 nM	
CCC(=O)C1CCN(c2ncnc3c2CN(C(=O)c2ccc(-c4ccccc4)cc2)CC3)CC1 [Compound 24]	80 ± 9 nM	IC50 (human TASK-3 channels [1]; [4]): 80 nM
CCOC(=O)C1CCN(c2nc(C)nc3c2CN(C(=O)c2ccc(-c4ccccc4)cc2)CC3)CC1 [Compound 14b]	260 ± 50 nM	
O=C(c1ccc(-c2ccccc2)cc1)N1CCc2ncnc(N3CC[C@H]4OCCC[C@@H]4C3)c2C1 [Compound 20b]	70 ± 7 nM	IC50 (human TASK-3 channels [1]; TASK-3): 70 nM; IC50 (human TASK-3 channels [1]; [5]): 70 nM; IC50 (human TASK-3 channels [1]; [4]): 70 nM
O=C(c1ccc(-c2ccccc2)cc1)N1CCc2ncnc(N3CCOCC3)c2C1 [Compound 17d]	4600 ± 1100 nM	
CCOC(=O)C1CCN(c2ncnc3c2CN(Cc2ccccc2)CC3)CC1 [Compound 9c]	710 ± 80 nM	
CCOC(=O)C1CCN(c2ncnc3c2CN(C(=O)c2ccc(C4CCCCC4)cc2)CC3)CC1 [Compound 12e]	120 ± 10 nM	
CCOC(=O)C1CCN(c2ncnc3c2CN(S(=O)(=O)c2ccccc2Cl)CC3)CC1 [Compound 11d]	900 ± 100 nM	
CCOC(=O)C1CCN(c2ncnc3c2CN(C(=O)c2ccc(OC)cc2)CC3)CC1 [Compound 12b]	1600 ± 180 nM	
O=C(c1ccc(-c2ccccc2)cc1)N1CCc2ncnc(N3CCCCC3)c2C1 [Compound 17c]	4000 ± 1100 nM	
CC(C)(O)C1CCN(c2ncnc3c2CN(C(=O)c2ccc(-c4ccccc4)cc2)CC3)CC1 [Compound 21]	50 ± 6 nM	IC50 (human TASK-3 channels [1]; TASK-3): 50 nM; IC50 (human TASK-3 channels [1]; [5]): 50 nM; IC50 (human TASK-3 channels [1]; [4]): 50 nM
CCOC(=O)C1CCN(c2ncnc3c2CN(C(=O)Nc2ccc(-c4ccccc4)cc2)CC3)CC1 [Compound 10c]	9600 ± 500 nM	
CCc1noc(C2CCN(c3ncnc4c3CN(C(=O)c3ccc(-c5ccccc5)cc3)CC4)CC2)n1 [Compound 22]	70 ± 10 nM	IC50 (human TASK-3 channels [1]; TASK-3): 70 nM; IC50 (human TASK-3 channels [1]; [5]): 70 nM; IC50 (human TASK-3 channels [1]; [4]): 70 nM
COC1CCN(c2ncnc3c2CN(C(=O)c2ccc(-c4ccccc4)cc2)CC3)CC1 [Compound 19]	135 ± 37 nM	IC50 (human TASK-3 channels [1]; [4]): 135 nM
CCOC(=O)C1CCN(c2ncnc3c2CN(C(=O)c2ccc(C)cc2)CC3)CC1 [Compound 12d]	310 ± 80 nM	
CCOC(=O)C1CCN(c2ncnc3c2CN(S(=O)(=O)Cc2ccccc2)CC3)CC1 [Compound 11a]	3600 ± 400 nM	
CCOC(=O)C1CCN(c2ncnc3c2CN(C(=O)c2ccc(Br)cc2)CC3)CC1 [Compound 12c]	430 ± 60 nM	
CCOC(=O)C1CCN(c2ncnc3c2CN(C(=O)NCc2ccccc2)CC3)CC1 [Compound 10b]	3400 ± 400 nM	
CCOC(=O)C1CCN(c2ncnc3c2CN(S(=O)(=O)c2cccc(Cl)c2)CC3)CC1 [Compound 11c]	700 ± 70 nM	
CCOC(=O)C1CCN(c2ncnc3c2CN(S(=O)(=O)c2ccc(Cl)cc2)CC3)CC1 [Compound 11b]	3900 ± 500 nM	
O=C(c1ccc(-c2ccccc2)cc1)N1CCc2ncnc(N3CCS(=O)(=O)CC3)c2C1 [Compound 17e]	570 ± 60 nM	IC50 (human TASK-3 channels [1]; [4]): 570 nM
CCOC(=O)C1CCN(c2ncnc3c2CN(C(=O)c2ccc(-c4ccccc4)cc2)CC3(C)C)CC1 [Compound 13a]	570 ± 30 nM	
